Laboratory results published in patent publication US20180318325A1, “ANTIBODIES FOR TARGETING CANCER STEM CELLS AND TREATING AGGRESSIVE CANCERS” (GlycoMimetics, Inc., priority 2015, published 2018).

How the values were obtained:
MM1S^HECA452 [1] = experiment: survival of SCID beige mice transplanted with MM1S^HECA452 cells; type: in vivo; details: MM1S^HECA452 engrafted female SCID beige mice; FIG. 4
Description: (§1) The significance of these in vitro findings were studied in vivo. Female SCID beige mice were injected i.v. with either MM1S^par or MM1S^HECA452 (5×10^5 cells, n=8/group) and followed for survival (see, e.g., FIG. 2). In separate cohorts, the effect of treatment with saline control, GMI-1271, bortezomib (BTZ) or a combination of both was determined in mice transplanted with either MM1S^par or MM1S^HECA452 cells.

E-selectin [2] = biological target: T1, E-selectin (Homo sapiens, UniProt P16581); experiment: rolling on E-selectin under shear stress; type: cell-based; details: both HECA-452 enriched and parental MM cell lines
T1 sequence (P16581 22-610): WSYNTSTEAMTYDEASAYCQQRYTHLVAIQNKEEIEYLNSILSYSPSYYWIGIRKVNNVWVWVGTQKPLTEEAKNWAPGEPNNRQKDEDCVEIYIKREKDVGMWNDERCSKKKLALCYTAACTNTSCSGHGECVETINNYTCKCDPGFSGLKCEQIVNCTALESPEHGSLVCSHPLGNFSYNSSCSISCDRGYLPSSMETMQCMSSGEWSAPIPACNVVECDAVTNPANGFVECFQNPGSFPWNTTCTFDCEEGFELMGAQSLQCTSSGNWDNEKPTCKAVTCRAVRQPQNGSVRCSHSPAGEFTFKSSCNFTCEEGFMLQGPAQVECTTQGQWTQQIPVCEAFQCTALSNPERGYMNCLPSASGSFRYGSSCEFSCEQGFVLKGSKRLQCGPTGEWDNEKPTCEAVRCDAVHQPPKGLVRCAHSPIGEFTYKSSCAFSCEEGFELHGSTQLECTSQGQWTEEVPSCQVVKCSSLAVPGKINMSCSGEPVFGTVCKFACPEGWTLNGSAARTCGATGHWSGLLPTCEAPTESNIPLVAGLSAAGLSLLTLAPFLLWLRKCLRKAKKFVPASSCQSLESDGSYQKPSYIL
Description: (§2) The derived cell lines could be passaged in vitro and were stable for enriched E-selectin ligand expression identified by antibody HECA-452.

MM1S^HECA452 [3] = experiment: mobilization of human CD138+ MM cells into the bloodstream of mice with MM1S^HECA452 tumors; type: in vivo
Description: The number of human CD138+ MM cells was mobilized into the bloodstream in mice with MM1S^HECA452 tumors within 60 min following a single injection of GMI-1271 (see, e.g., FIG. 5) and persisted for at least 24 hours (2.37% v. 0.03%, p<0.001). This effect was consistent with GMI-1271 disrupting the tumor microenvironment and mobilizing MM1S^HECA-452 cells from the BM niche into the peripheral blood.

MM1S^par = experiment: survival of SCID beige mice transplanted with MM1S^par cells; type: in vivo; details: MM1S^par engrafted female SCID beige mice; FIG. 3
Description: as §1

MM cells = details: murine transplant models; Natoni et al., Blood, 2014; cited from earlier work
E-selectin [4] = biological target: T1, E-selectin; experiment: static adhesion assay on E-selectin; type: cell-based; details: GMI-1271 included during culture conditions; MM1S^HECA452 cells
Description: as §2

E-selectin [5] = biological target: T1, E-selectin; details: MM1S cells that bind to HECA-452; previously reported; cited from earlier work
[6] = following a single injection of GMI-1271

SMILES	survival / anti-myeloma activity (MM1S^HECA452 [1])	rolling on E-selectin (E-selectin [2])	human CD138+ MM cells in the bloodstream (MM1S^HECA452 [3]; after a single injection of GMI-1271, 24 hours, v. 0.03%, p<0.001) [%]	persistence of mobilization (MM1S^HECA452 [3]; [6])	time to mobilization of CD138+ MM cells into the bloodstream (MM1S^HECA452 [3]; [6]) [min]	survival (MM1S^par)	effect on activity of bortezomib in vivo (MM cells)	adhesion of MM1S^HECA452 to E-selectin (E-selectin [4])	rolling of MM1S cells on E-selectin (E-selectin [5])
CC(C)C[C@H](NC(=O)[C@H](Cc1ccccc1)NC(=O)c1cnccn1)B(O)O [BTZ, bortezomib]	marked resistance to BTZ treatment								
CC[C@H]1C[C@@H](C(=O)NCCNC(=O)CCOCCOCCOCCOCCOCCOCCOCCOCCOCCOCCOCCOC)C[C@@H](O[C@@H]2O[C@H](CO)[C@H](O)[C@H](O[C@@H](CC3CCCCC3)C(=O)[O-])[C@H]2NC(C)=O)[C@@H]1O[C@@H]1O[C@@H](C)[C@@H](O)[C@@H](O)[C@@H]1O.[Na+] [GMI-1271]		profoundly inhibited rolling	2.37	at least 24 hours	≤ 60	no impact on survival	enhance the activity of bortezomib	marked reduction in adhesion	blocked the rolling
